Source: ChEMBL document CHEMBL4419169, “Novel Ferroportin Inhibitors” (2018)
The source made the active and inactive calls. No cut-off for these calls is given here.

Experiments:
[1] = target: T1, Ferroportin (Mus musculus) (UniProt Q9JHI9); test: Inhibition of ferroportin in mouse J774 cells assessed as induce ferroportin ubiquitination and degradation at 0.2 uM incubated for 10 mins by immunoprecipitation assay; type: cell-based
T1 sequence (whole entry): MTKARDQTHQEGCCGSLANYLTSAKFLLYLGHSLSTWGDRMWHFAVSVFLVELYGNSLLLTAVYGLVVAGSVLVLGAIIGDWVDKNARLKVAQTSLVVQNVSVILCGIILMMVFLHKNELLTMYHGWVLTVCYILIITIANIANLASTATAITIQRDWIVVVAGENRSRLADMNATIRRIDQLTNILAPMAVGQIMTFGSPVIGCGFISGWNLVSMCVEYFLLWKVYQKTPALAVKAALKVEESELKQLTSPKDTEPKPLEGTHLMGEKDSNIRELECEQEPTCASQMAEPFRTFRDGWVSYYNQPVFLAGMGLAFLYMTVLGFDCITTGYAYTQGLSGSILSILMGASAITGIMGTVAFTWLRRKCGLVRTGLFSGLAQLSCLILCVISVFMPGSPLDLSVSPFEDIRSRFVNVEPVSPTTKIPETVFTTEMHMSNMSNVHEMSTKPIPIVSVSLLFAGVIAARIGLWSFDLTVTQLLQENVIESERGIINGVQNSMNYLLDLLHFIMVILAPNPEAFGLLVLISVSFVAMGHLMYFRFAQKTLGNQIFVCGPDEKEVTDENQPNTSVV

[2] = target: T1, Ferroportin (Mus musculus); test: Inhibition of ferroportin in mouse J774 cells assessed as induce ferroportin ubiquitination and degradation at 0.2 uM incubated for 120 mins by immunoprecipitation assay; type: cell-based
Mus musculus [3] = test: Prevention of hyperferremia in iron overloaded beta2-microglobulin deficient female mouse assessed as reduction in serum iron level at 60 mg/kg, po measured after 3 hrs relative to control; type: functional; design: scale not given: the % may be the effect or the level left
Mus musculus [4] = test: Prevention of hyperferremia in iron overloaded beta2-microglobulin deficient male mouse assessed as reduction in serum iron level at 60 mg/kg, po measured after 3 hrs relative to control; type: functional; design: scale not given: the % may be the effect or the level left
[5] = target: T1, Ferroportin (Mus musculus); test: Inhibition of ferroportin in mouse J774 cells assessed as induce ferroportin ubiquitination and degradation at 0.8 uM incubated for 10 mins by immunoprecipitation assay; type: cell-based
[6] = target: T1, Ferroportin (Mus musculus); test: Inhibition of ferroportin in mouse J774 cells assessed as induce ferroportin ubiquitination and degradation at 0.8 uM incubated for 120 mins by immunoprecipitation assay; type: cell-based
[7] = target: T1, Ferroportin (Mus musculus); test: Inhibition of ferroportin in mouse J774 cells assessed as induce ferroportin ubiquitination and degradation at 0.04 uM incubated for 10 mins by immunoprecipitation assay; type: cell-based
[8] = target: T1, Ferroportin (Mus musculus); test: Inhibition of ferroportin in mouse J774 cells assessed as induce ferroportin ubiquitination and degradation at 0.04 uM incubated for 120 mins by immunoprecipitation assay; type: cell-based
[9] = target: T1, Ferroportin (Mus musculus); test: Inhibition of ferroportin in mouse J774 cells assessed as induce ferroportin ubiquitination and degradation at 0.3 uM incubated for 10 mins by immunoprecipitation assay; type: cell-based
[10] = target: T1, Ferroportin (Mus musculus); test: Inhibition of ferroportin in mouse J774 cells assessed as induce ferroportin ubiquitination and degradation at 0.3 uM incubated for 120 mins by immunoprecipitation assay; type: cell-based
Rattus norvegicus = test: Prevention of iron absorption in orally dosed anemic Wistar rat model of iron absorption assessed as inhibition of increase in serum iron pre-dosed 1 hr before ferrous sulfate dosing and measured 3 hours after iron dosing; type: functional, organism-based
[11] = target: T1, Ferroportin (Mus musculus); test: Inhibition of ferroportin in mouse J774 cells assessed as induce ferroportin ubiquitination and degradation at 0.1 uM incubated for 10 mins by immunoprecipitation assay; type: cell-based
[12] = target: T1, Ferroportin (Mus musculus); test: Inhibition of ferroportin in mouse J774 cells assessed as induce ferroportin ubiquitination and degradation at 0.1 uM incubated for 120 mins by immunoprecipitation assay; type: cell-based
Mus musculus [13] = test: Disease modifying capacity in mouse model of transfusion-independent beta-thalassemia intermedia assessed as decrease in bone marrow ROS levels level at 60 mg/kg, po BID for 27 days relative to control; type: functional; design: scale not given: the % may be the effect or the level left

O=C(NCc1ncccc1F)c1coc(C2CN(CCc3nc4ccccc4[nH]3)C2)n1
inhibition [1]: Active
inhibition [2]: Active
Activity (Mus musculus [3]): 49%
Activity (Mus musculus [4]): 67%

O=C(NCc1ncccc1F)c1coc(CCNCc2nc3ccccc3[nH]2)n1
inhibition [5]: Active
inhibition [6]: Active

O=C(NCc1ncccc1F)c1csc(CCN(CCc2nc3ccccc3[nH]2)CCc2nc3ccccc3[nH]2)n1
inhibition [7]: Active
inhibition [8]: Active

O=C(NCc1ncccc1F)c1cnn(CCNCCc2nc3ccccc3[nH]2)c1
inhibition [9]: Active
inhibition [10]: Active

Cc1cccnc1CNC(=O)c1csc(CCNCc2nc3ccccc3[nH]2)n1
Activity (Rattus norvegicus): Dose-dependent effect

Cl.Cl.Cl.O=C(NCc1ncccc1F)c1coc(CCNCCc2nc3ccccc3[nH]2)n1 [VAMIFEPORT HYDROCHLORIDE]
inhibition [11]: Active
inhibition [12]: Active
Activity (Mus musculus [3]): 74%
Activity (Mus musculus [4]): 83%
Activity (Mus musculus [13]): 75%
